Source: patent publication US4473577A, “2-Thiazolamine derivatives, process for preparing same, and pharmaceutical compositions comprising same” (Mitsui Toatsu Chemicals, Incorporated, priority 1982, dated 1984)
Where a name gives a salt, the structure may show the parent alone. Read-outs that look alike come from different tables or passages of the source.

Experiments:
[1] = test system: adjuvant arthritis induced in rats by injection of a tubercle bacillus adjuvant; type: in vivo, male rats of the SD strain
[2] = test system: delayed hypersensitivity induced in mice by picryl chloride; experiment: Augmentation test of delayed hypersensitivity (picryl chloride, ear thickness); type: in vivo, male mice of the ICR strain; conditions: mouse ICR, 50 mg per kg orally, simultaneously with sensitization; ear thickness before and 24 hours after challenge (7 days after sensitization); average of 16 measurements; * = P<0.05 vs control
Excerpt: L., and Ptak, W. "Contact and delayed hypersensitivity in the mouse I. Active sensitization and passive transfer," Immunology, 15, 405-416(1968)). In the following Evaluation Test 1, this experimental system was used to carry out an augmentation test of delayed hypersensitivity. Male mice of the ICR strain, weighing approximately 30 g, were used in groups of eight. These animals were sensitized by shaving the hair on the abdomen and applying thereto a 3% solution of picryl chloride in a 4:1 mixture of olive oil and acetone. Simultaneously with this sensitization, each of three compounds of the present invention was dissolved or suspended in physiological saline containing 0.2% carboxymethyl cellulose and administered orally to the animals in a dose of 50 mg per kg of body weight. A control group was treated solely with physiological saline containing 0.2% carboxymethyl cellulose. Seven days after sensitization, the animals were challenged by wrapping the tips of a forceps with pieces of felt, impregnating the felt with olive oil containing 1% picryl chloride, and pinching both ears of each animal. The thicknesses of the ears were measured before and 24 hours after the challenge, and the calculated present increase of ear thickness (the average of 16 measurements made of the ears of 8 animals) is shown in Table 1. […] The test results thus obtained were subjected to statistical analysis using the F.t test. The values marked with an asterisk (*) indicate that, when they were compared with the value of the control, the differences were significant at P<0.05.

[3] = Test for acute oral toxicity; set-up: species or system male mice of the ddY strain; conditions: mouse, in vivo, male ddY mice, 7 days observation, estimated
Procedure: Each of the three compounds used in Evaluation Tests 1 and 2 was dissolved or suspended in physiological saline and administered orally to a group of 5 male mice of the ddY strain. The LD50 value of the compound was estimated by observing these animals for 7 days after administration.

[4] = rat SD, 5 mg per kg subcutaneously, nine times before and after adjuvant, left hind paw volume, * = P<0.05 vs control

SMILES	Percent inhibition of swelling as compared with control group (average of 16-20 days) [1, 4] [%]	Percent increase of ear thickness [2] [%]	Percent inhibition of swelling as compared with control group (average of 16-20 days) ([1]; rat, in vivo, sc) [%]	LD50 at 168 h [3] [mg/kg]
CO/N=C(\C(=O)OC)c1csc(NC(=O)OCC(Cl)(Cl)Cl)n1 [drawing 11]	39.5			
CO/N=C(\C(=O)OC)c1csc(NC(=O)OCC(Cl)(Cl)Cl)n1 [drawing 8]		33.4		
CCC(=O)Nc1nc(/C(=N/OC)C(=O)OC)cs1 [drawing 13]	22.3			
CCC(=O)Nc1nc(/C(=N/OC)C(=O)OC)cs1 [drawing 10]		35.2		
c1ccc([C@H]2CN3CCSC3=N2)cc1 [Levamisole hydrochloride, reference compound]		31.2	19.8	200 to 300
